Measurements: PubChem BioAssay AID434951 (Broad Institute, 2010)
The source made the active and inactive calls.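 The calls were made as follows: active = a fitted half-maximal concentration EC50 for the rise in nuclear signal no higher than ten times the top dose tested; inconclusive = flat fit with activity between 30% and 70%, or unusable fit; inactive = EC50 beyond ten times the top dose.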

target: Hypoxia-inducible factor 1-alpha (Homo sapiens) (UniProt Q16665); test: HIF pathway activation, GFP-HIF1alpha translocation – imaging, fluorescence, U2OS GFP-HIF1alpha, confirmation (AID 434951); conditions: U2OS GFP-HIF1alpha nuclear intensity, high-content imaging
Sequence (Q16665 whole entry, looked up): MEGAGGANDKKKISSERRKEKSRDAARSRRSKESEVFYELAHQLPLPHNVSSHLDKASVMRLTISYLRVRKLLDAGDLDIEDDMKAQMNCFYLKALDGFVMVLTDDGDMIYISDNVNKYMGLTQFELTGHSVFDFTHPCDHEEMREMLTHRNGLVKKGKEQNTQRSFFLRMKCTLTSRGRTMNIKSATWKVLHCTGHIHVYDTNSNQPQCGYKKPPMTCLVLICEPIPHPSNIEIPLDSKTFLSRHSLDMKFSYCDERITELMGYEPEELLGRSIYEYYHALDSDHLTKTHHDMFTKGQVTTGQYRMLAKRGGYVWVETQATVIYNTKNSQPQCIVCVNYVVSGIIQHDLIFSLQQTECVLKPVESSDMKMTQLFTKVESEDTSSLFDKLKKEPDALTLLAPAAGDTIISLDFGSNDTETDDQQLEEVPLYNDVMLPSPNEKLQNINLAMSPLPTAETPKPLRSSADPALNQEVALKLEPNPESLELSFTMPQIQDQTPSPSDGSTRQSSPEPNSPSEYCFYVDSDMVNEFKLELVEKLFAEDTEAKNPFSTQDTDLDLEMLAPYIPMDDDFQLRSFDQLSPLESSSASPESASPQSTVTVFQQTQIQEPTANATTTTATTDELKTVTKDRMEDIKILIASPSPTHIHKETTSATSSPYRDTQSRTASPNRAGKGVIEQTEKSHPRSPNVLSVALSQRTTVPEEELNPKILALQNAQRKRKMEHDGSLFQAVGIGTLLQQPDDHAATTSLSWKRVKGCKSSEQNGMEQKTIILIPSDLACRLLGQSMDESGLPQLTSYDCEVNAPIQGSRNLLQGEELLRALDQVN

Q: With `C/C(=N\NC(=O)Cc1ccc(Cl)cc1)c1ccccn1` as the compound, how does the EC50 read?
A: The EC50 was 5.92 µM.

Q: `O=C(NCCCN1CCOCC1)c1cc(-c2cccs2)on1` was tested. Which EC50 did it give?
A: The EC50 was 12.3 µM.

Q: Which EC50 does the source give for `CCOC(=O)N1CCN(C(=O)c2ccc(Cn3c(=S)[nH]c4cc(OCC)c(OCC)cc4c3=O)cc2)CC1` here?
A: The EC50 was 5.64 µM.

Q: `Cc1cc(Nc2ccccc2)cc(=O)n1C` was tested. Which EC50 did it give?
A: Its EC50 is > 35 µM (inactive).

Q: For `CCCCOC(=O)c1ccc(NC(=S)NC(=O)c2c(Br)c(C)nn2C)cc1`, which EC50 is on record?
A: Its EC50 is > 35 µM (inactive).

Q: How did the EC50 turn out when `COc1ccccc1N1CCN(Cc2ccc(O)c3ncccc23)CC1` was run?
A: Its EC50 is 5.41 µM.

Q: With `COc1ccc(-c2cn3nc(SCC(=O)NCC4CCCO4)ccc3n2)cc1` (configuration not stated) as the compound, how does the EC50 read?
A: The EC50 was > 35 µM (inactive).

Q: With `CCOC(=O)C1CCCN(C(=O)c2ccc3nc(-c4ccccc4)c(-c4ccccc4)nc3c2)C1` (configuration not stated) as the compound, how does the EC50 read?
A: Its EC50 is > 35 µM (inactive).

Q: How did the EC50 turn out when `COc1ccc(C(CC(=O)NCc2ccccc2)Sc2n[nH]c(-c3ccccc3)n2)cc1` (configuration not stated) was run?
A: Its EC50 is 33 µM.

Q: With `CCC(C)(C)c1nnc(NC(=O)C2CCN(C(=O)c3ccco3)CC2)s1` as the compound, how does the EC50 read?
A: Its EC50 is > 35 µM (inactive).

Q: With `C=CCNC(=O)/C(=C/c1cn(-c2ccccc2)nc1-c1cccc([N+](=O)[O-])c1)NC(=O)c1ccccc1` as the compound, how does the EC50 read?
A: The EC50 was > 35 µM (inactive).

Q: How did the EC50 turn out when `O=C(N/N=C/c1cc(Br)ccc1O)C(=O)Nc1ccccc1OC(F)(F)C(F)F` was run?
A: Its EC50 is 35.2 µM.

Q: Which EC50 does the source give for `C=C(C)Cn1c(CCNC(=O)C(C)C)nc2ccccc21` here?
A: The EC50 was > 35 µM (inactive).

Q: How did the EC50 turn out when `O=S(=O)(CCSc1nc2ccccc2s1)c1nc2ccccc2s1` was run?
A: Its EC50 is > 35 µM (inactive).

Q: With `COc1ccc(/C=N/NC(=S)Nc2cc(S(=O)(=O)N3CCOCC3)ccc2N2CCOCC2)cc1O` as the compound, how does the EC50 read?
A: Its EC50 is > 35 µM (inactive).

Q: Which EC50 does the source give for `CCN(CCN(C)C)C(=O)C1CCN(S(=O)(=O)c2c(C)noc2/C=C/c2ccccc2F)CC1` here?
A: The EC50 was 10.4 µM.

Q: How did the EC50 turn out when `Cc1cc(NC(=O)CCN2C(=O)/C(=C\c3ccccc3)SC2=S)no1` was run?
A: The EC50 was 34.4 µM.

Q: For `COc1ccc(NC(=O)C(=O)NNC(=O)c2ccc(Cl)cc2Cl)cc1`, which EC50 is on record?
A: Its EC50 is > 35 µM (inactive).

Q: For `Oc1ccc(N=Nc2ccc3c(c2)OCCO3)c2cccnc12`, which EC50 is on record?
A: Its EC50 is > 35 µM (inactive).

Q: `CCOC(=O)c1c(S(=O)(=O)N2CCC(C)CC2)c(C)n(C)c1C` was tested. Which EC50 did it give?
A: Its EC50 is > 35 µM (inactive).

Q: `COc1cnc(-c2ccccn2)nc1N(C)c1ccccc1` was tested. Which EC50 did it give?
A: The EC50 was 9.27 µM.

Q: How did the EC50 turn out when `Cc1ccc(N=Nc2ccc(O)c(/C=N\NC(=O)c3ccc(N)cc3)c2)cc1C` was run?
A: The EC50 was > 35 µM (inactive).

Q: How did the EC50 turn out when `O=C(NC(CSCc1ccccc1)C(=O)N/N=C/c1ccc(O)cc1O)c1ccc([N+](=O)[O-])cc1` (configuration not stated) was run?
A: The EC50 was 2.51 µM.

Q: With `O=C(NCC(=O)N(Cc1ccco1)C(C(=O)NC1CCCCC1)c1cccnc1)c1cccs1` (configuration not stated) as the compound, how does the EC50 read?
A: The EC50 was > 35 µM (inactive).

Q: How did the EC50 turn out when `CCCCNC(=O)c1cc(-c2ccc(F)cc2)on1` was run?
A: The EC50 was 9.23 µM.

Q: For `Cc1ccc2[nH]c3c(=O)n(CC(=O)NCCCN(C)Cc4ccccc4)ncc3c2c1`, which EC50 is on record?
A: The EC50 was > 35 µM (inactive).

Q: With `CN(CC1CCCO1)S(=O)(=O)c1ccc(C(=O)Nc2nccs2)cc1` (configuration not stated) as the compound, how does the EC50 read?
A: Its EC50 is > 35 µM (inactive).

Q: How did the EC50 turn out when `CCOc1ccc(-c2c(C(=O)N/N=C/c3cccnc3)nnn2-c2nonc2N)cc1` was run?
A: The EC50 was > 35 µM (inactive).

Q: Which EC50 does the source give for `O=C(CSc1c[nH]c2ccccc12)NCc1ccc2c(c1)OCO2` here?
A: The EC50 was > 35 µM (inactive).

Q: With `COc1ccccc1-c1cc(C(F)(F)F)nc(S(=O)(=O)CCCC(=O)NC(C)C)n1` as the compound, how does the EC50 read?
A: The EC50 was > 35 µM (inactive).

Q: How did the EC50 turn out when `Cc1ccc(C(CC(=O)O)C2CCOC(C)(C)C2)cc1` (configuration not stated) was run?
A: Its EC50 is > 35 µM (inactive).

Q: `O=C(C[n+]1ccn(CCCNP2(=O)C=C(c3ccccc3)OC(c3ccccc3)=C2)c1)c1cccs1` was tested. Which EC50 did it give?
A: The EC50 was > 35 µM (inactive).

Q: For `O=C(NNC(=O)c1ccccc1Br)c1ccc(Cl)cc1`, which EC50 is on record?
A: Its EC50 is > 35 µM (inactive).

Q: With `CC(C)c1ccc(N(C(=O)c2snc(C(N)=O)c2N)C(C(=O)NC2CCCC2)c2ccncc2)cc1` (configuration not stated) as the compound, how does the EC50 read?
A: Its EC50 is 21.4 µM.

Q: Which EC50 does the source give for `O=C(Cn1ncc2c3ccccc3n(Cc3ccccc3F)c2c1=O)NCCN1CCOCC1` here?
A: Its EC50 is > 35 µM (inactive).

Q: With `Cn1nnnc1N=N/C(=N/Nc1ccccc1)c1ccccc1` as the compound, how does the EC50 read?
A: Its EC50 is 7.53 µM.

Q: Which EC50 does the source give for `CC(=O)c1ccc(N(C(=O)c2csnn2)C(C(=O)NC(C)(C)C)c2cccs2)cc1` (configuration not stated) here?
A: Its EC50 is > 35 µM (inactive).

Q: `CCC(=NCc1cc(OC)cc(OC)c1)c1c(O)[nH]c(=O)[nH]c1=O` was tested. Which EC50 did it give?
A: Its EC50 is > 35 µM (inactive).

Q: With `Cc1ccc(-c2csc3nc(SCC(=O)N(C)C)n(Cc4ccccc4)c(=O)c23)cc1` as the compound, how does the EC50 read?
A: The EC50 was 5.26 µM.

Q: Which EC50 does the source give for `COC(=O)CC1C(=O)NCCN1C(=O)CSc1nnc(Nc2ccc(OC)cc2)s1` (configuration not stated) here?
A: The EC50 was > 35 µM (inactive).

Q: For `Oc1cccc(/C=N/c2c(-c3ccco3)nc3ccccn23)c1`, which EC50 is on record?
A: Its EC50 is > 35 µM (inactive).

Q: `Cc1ccc(-c2cc(C(=O)Nc3cccnc3)[nH]n2)c(O)c1C` was tested. Which EC50 did it give?
A: Its EC50 is > 35 µM (inactive).

Q: `CCCCNc1nc(N)nc(-c2cc(Cl)ccc2O)n1` was tested. Which EC50 did it give?
A: The EC50 was > 35 µM (inactive).

Q: Which EC50 does the source give for `CCC1Oc2ccccc2N(CC(=O)Nc2ccccc2OC)C1=O` (configuration not stated) here?
A: Its EC50 is > 35 µM (inactive).

Q: How did the EC50 turn out when `CCCCc1c(C)nc(N)[nH]c1=O` was run?
A: Its EC50 is > 35 µM (inactive).

Q: For `O=C(CC1SC(N2CCCC2)=NC1=O)Nc1ccc(C(=O)Nc2ncccc2O)cc1` (configuration not stated), which EC50 is on record?
A: The EC50 was 29.7 µM.

Q: How did the EC50 turn out when `COc1ccc(C(=O)C2CCCN(C(=O)C3CCOCC3)C2)cc1OC` (configuration not stated) was run?
A: Its EC50 is > 35 µM (inactive).

Q: For `Cc1nc2nc(-c3ccco3)nn2c(C)c1Cl`, which EC50 is on record?
A: Its EC50 is > 35 µM (inactive).

Q: Which EC50 does the source give for `CCN(CC)CCNCc1nc2ccccc2c(=O)n1-c1ccc(F)cc1` here?
A: Its EC50 is > 35 µM (inactive).

Q: For `CCOC(=O)CN1C(=N)N(c2nc(NC(C)C)nc(NC(C)C)n2)CC1=O`, which EC50 is on record?
A: The EC50 was > 35 µM (inactive).

Q: How did the EC50 turn out when `Cn1ncc(Br)c1NC(=O)CSc1ccc(Cl)cc1` was run?
A: The EC50 was > 35 µM (inactive).

Q: For `COC(=O)Cc1ccc(NC(=S)NC(C)(C)C)cc1`, which EC50 is on record?
A: Its EC50 is > 35 µM (inactive).

Q: For `O=C(Nc1nc(NC(=O)c2ccco2)n(-c2ccccc2)n1)c1ccccc1`, which EC50 is on record?
A: The EC50 was 13.1 µM.

Q: Which EC50 does the source give for `O=C(Nc1nc(-c2ccccn2)cs1)c1ccc(S(=O)(=O)N2CCCCC2)cc1` here?
A: The EC50 was 7.12 µM.

Q: `FC(F)(F)c1cnc(N2CCN(C(=S)NCc3ccccc3)CC2)c(Cl)c1` was tested. Which EC50 did it give?
A: The EC50 was > 35 µM (inactive).

Q: For `CCC/C(=N/NC(=O)c1cccc(Cl)c1)c1ccccc1`, which EC50 is on record?
A: The EC50 was > 35 µM (inactive).

Q: Which EC50 does the source give for `CCCOc1cccc(C2C(C(=O)c3ccco3)=C(O)C(=O)N2CCCn2ccnc2)c1` (configuration not stated) here?
A: The EC50 was > 35 µM (inactive).

Q: For `Cc1cc(Br)cc(/C=N/NC(=O)c2ccc3c(c2)OCO3)c1O`, which EC50 is on record?
A: Its EC50 is 6.26 µM.

Q: `CCC(=O)n1nc(NCc2ccc(OC)c(OC)c2)nc1NCc1ccc(OC)c(OC)c1` was tested. Which EC50 did it give?
A: The EC50 was > 35 µM (inactive).

Q: How did the EC50 turn out when `CCN(CC)CCNc1cc(C)nc2c1C(=O)C(=O)C=C2N1CCCCC1` was run?
A: The EC50 was 3.63 µM.

Q: How did the EC50 turn out when `CCCCCCCCCS(=O)(=O)N/N=C/c1cccc([N+](=O)[O-])c1` was run?
A: The EC50 was > 35 µM (inactive).

Q: `CCOC(=O)c1c(NC(=O)CCC(=O)O)sc2c1CCCCC2` was tested. Which EC50 did it give?
A: The EC50 was > 35 µM (inactive).

Q: Which EC50 does the source give for `O=C(CN1CCCc2ccccc21)N/N=C/c1c(O)ccc2ccccc12` here?
A: Its EC50 is 36.5 µM.

Q: `COc1ccc2oc(=O)c(C(=O)NC3CCCCCC3)cc2c1` was tested. Which EC50 did it give?
A: The EC50 was > 35 µM (inactive).

Q: Which EC50 does the source give for `CCNC(=O)COc1cccc(C(=O)NCc2ccccc2)c1` here?
A: The EC50 was > 35 µM (inactive).

Q: Which EC50 does the source give for `c1cnc(N2CCN(c3ccc4ccccc4n3)CC2)nc1` here?
A: Its EC50 is > 35 µM (inactive).

Q: For `O=C(CN1CCCC1)N/N=C/c1c(O)ccc2ccccc12`, which EC50 is on record?
A: The EC50 was 8.15 µM.

Q: `Nc1nc2nc(-c3cccs3)cc(C(F)(F)F)n2n1` was tested. Which EC50 did it give?
A: Its EC50 is > 35 µM (inactive).

Q: Which EC50 does the source give for `Oc1ccc(CN2CCc3ccccc3C2)c2cccnc12` here?
A: The EC50 was 2.4 µM.

Q: With `C[C@@H]1O[C@@H](OC[C@H]2O[C@@H](Oc3c(-c4ccc(O)cc4)oc4cc(O)cc(O)c4c3=O)[C@H](O)[C@@H](O)[C@@H]2O)[C@H](O)[C@H](O)[C@H]1O` as the compound, how does the EC50 read?
A: Its EC50 is > 35 µM (inactive).

Q: How did the EC50 turn out when `O=C(CCSc1nc2ccccc2s1)N/N=C/c1c(O)ccc2ccccc12` was run?
A: Its EC50 is 11.5 µM.

Q: With `COc1ccc(C(=O)NCCc2nc3cc([N+](=O)[O-])ccc3n2C)cc1` as the compound, how does the EC50 read?
A: The EC50 was > 35 µM (inactive).
